Laboratory results from PubChem BioAssay (NCI).
Several values for one entry are separate records, joined by “and”; a condition that tells them apart may be missing. Equal values may be shown once.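 Each compound was tested at five concentrations against cells in 96-well plates for 48 hours. At the GI50, growth is halved. Definition used: TGI = concentration required for complete inhibition of growth.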

System: MDA-MB-468 breast
Test: NCI anticancer screen, dose series, 48 h

## O=C(Oc1ccc([N+](=O)[O-])cc1)N1CCC(C(O)(c2ccc3c(c2)OCO3)c2ccc3c(c2)OCO3)CC1
  GI50: > 100000 nM
  TGI: > 100000 nM

## N#CC1=C(N)Oc2c(sc3c(F)cccc23)C1c1ccc([N+](=O)[O-])cc1 (centres undefined)
  GI50: 78.7 nM
  TGI: 902 nM

## COc1cc(/C=C2\C(=O)N(c3c(Cl)cccc3Cl)c3ccccc32)cc(OC)c1O
  GI50: 2270 nM
  TGI: 12900 nM

## COc1cc2c(cc1OC)C(Sc1ccc(F)cc1)c1c(nc(N)c(C#N)c1N)O2 (centres undefined)
  GI50: 511 nM
  TGI: 1840 nM

## NC(=O)c1c(OCc2c(F)cc(Br)cc2F)nsc1NC(=O)NCCCCN1CCCC1
  GI50: 1490 nM
  TGI: 3180 nM

## C[C@]12CC[C@@H]3c4ccc(O)cc4CC[C@H]3[C@@H]1CC[C@@H]2NS(=O)(=O)c1cccc(Br)c1
  GI50: 2430 nM
  TGI: 11500 nM

## Cc1ccc(NC2=C(Cl)C(=O)c3nc(C)ccc3C2=O)cc1
  GI50: 329 nM
  TGI: 1310 nM

## C#C[C@]1(O)CC[C@H]2[C@@H]3CC=C4c5nc(Nc6ccc(OC)cc6OC)sc5CC[C@]4(C)[C@H]3CC[C@@]21C
  GI50: 1840 nM
  TGI: 4080 nM

## O=C(Nc1ccc(-n2cc(-c3ccncc3)c(-c3ccc(Cl)c(O)c3)n2)cc1)c1cc(Cl)cc(Cl)c1
  GI50: 6070 nM
  TGI: > 100000 nM

## COCCOC(C)C(/C=N/NC(N)=S)=N/NC(N)=S (centres undefined)
  GI50: 21.7 nM
  TGI: > 100000 nM

## O=C1Nc2ccccc2SC1C1SC(=S)N(Cc2ccccc2)C1=O (centres undefined)
  GI50: 1050 nM
  TGI: 23400 nM

## Cc1ccnc2c1NC(=O)c1cccnc1N2C1CC1
  GI50: > 100000 nM
  TGI: > 100000 nM

## N#Cc1ccc(-n2cnc(NC(=O)[C@H]3CCN(C#N)C3)c2)cc1
  GI50: 337 nM
  TGI: 2450 nM

## C=CC(=O)Nc1cc2c(Nc3ccc(OCc4ccccn4)c(Cl)c3)ncnc2cc1OCCN1CCOCC1
  GI50: 14.3 nM
  TGI: 282 nM

## Cc1oc2c(c1C(=O)c1ccccc1)C(=O)c1ccccc1C2=O
  GI50: 1740 nM
  TGI: 3260 nM

## NC(N)=NC(N)=NCCc1ccccc1
  GI50: 6580 nM and 15000 nM
  TGI: 94900 nM and > 100000 nM

## CC/C(=C(\c1ccc(O)cc1)c1ccc(OCCNC)cc1)c1ccccc1
  GI50: 1590 nM and 1530 nM and 1510 nM
  TGI: 3200 nM and 2980 nM and 3210 nM

## CS(=O)(=O)c1ccc(C(F)(F)F)cc1NC(=O)Nc1cnc(Oc2ccc(-c3cc(Cl)cnc3N)cc2)nc1
  GI50: 2020 nM
  TGI: 7000 nM

## COC(=O)c1c2c(c(C)[n+]([O-])c1C)C(=O)C(NCc1ccc(F)c(Cl)c1)=CC2=O
  GI50: 1120 nM
  TGI: 3040 nM

## Nc1cc(C(F)F)c(-c2nc(N3[C@@H]4CC[C@H]3COC4)nc(N3[C@@H]4CC[C@H]3COC4)n2)cn1
  GI50: 249 nM
  TGI: 3030 nM

## O=C1C(Nc2ccccn2)=C(I)C(=O)c2ncccc21
  GI50: 1220 nM
  TGI: 2770 nM

## CCN(C)S(=O)(=O)Nc1cccc(Nc2ncnc3cc(NC(=O)CCl)ccc23)c1Cl
  GI50: 2340 nM
  TGI: 6700 nM

## Cc1cc(NC(=O)CCc2ccc(N3C(N)=NC(N)=NC3(C)C)cc2)ccc1S(=O)(=O)F
  GI50: 736 nM
  TGI: > 82900 nM

## Cc1cc(N2CCN(C)CC2)nc(NC2CCCC(Nc3ccnc4cc(Cl)ccc34)C2)n1 (centres undefined)
  GI50: 1670 nM
  TGI: 4360 nM

## COc1cc2cc(C(=O)O)[nH]c2cc1OCc1ccccc1
  GI50: > 100000 nM
  TGI: > 100000 nM

## O=C(NNc1nc2cc(F)ccc2n2c(CN3CC4(COC4)C3)ccc12)c1cnccn1
  GI50: 302 nM
  TGI: 1240 nM

## O=[N+]([O-])c1ccc2nc(N/N=C/c3ccc(O)cc3)sc2c1
  GI50: 3910 nM
  TGI: 20800 nM

## CCCn1cnc2c(c1=N)C(c1ccc(OC)cc1)c1sc3c(CC)cccc3c1O2 (centres undefined)
  GI50: 422 nM
  TGI: 4270 nM

## O=[N+]([O-])c1ccc(N(CCO)CCO)c2c1no[n+]2[O-]
  GI50: 625 nM
  TGI: 2860 nM

## N#Cc1cccc(Nc2nccc(-c3cnn4ncccc34)n2)c1
  GI50: 8.04 nM
  TGI: 29.3 nM

## CCOC(=O)c1c(C)c2c(n1C)CSc1cc(S(=O)(=O)c3ccccc3)c(=O)[nH]c1-2
  GI50: 14200 nM
  TGI: > 100000 nM

## O=C(N/N=C/c1cc2ccccc2c2ccccc12)c1cc(O)c(O)c(O)c1
  GI50: 2460 nM
  TGI: 6880 nM
